{
  "source": "patent US20030119894A1",
  "about": "“Methods for treatment of cancer or neoplastic disease and for inhibiting growth of cancer cells and neoplastic cells” (Gemin X Biotechnologies Inc., priority 2001, published 2003)",
  "key": {"B23 cells [1]": {"system": "B23 cells", "assay_type": "cell-based, Human", "details": "B23 cells without E1A; data not shown"}, "E1A cells": {"system": "E1A cells", "assay": "E1A-Bcl2 killing assay", "assay_type": "cell-based", "method": "(§1) Human anti-apoptotic Bcl-2 over-expressing epithelial cells (B23 cells) (Nguyen et al. (1994) J. Biol. Chem. 269 (24): 16521-24) were plated in 24-well plates at a density of about 80,000 cells per well and infected with 12S-adenovirus, which expresses the E1A oncogene (Nguyen et al. (1998) J. Biol. Chem. 273 (50): 33099-102). Normal human breast epithelial cells, MCF-7 breast cancer cells and MBA-MB231 breast cancer cells were plated in 24-well plates at a density of between 70,000-80,000 cells per well. After incubation at 37° C. for the indicated times in a 5% CO2 incubator, cells were harvested and cell death was monitored using a trypan blue assay as described in Ausubel et al. (1988) Current Protocols in Molecular Biology, Section 11.5.1 (Greene Publishing Associates and Intersciences, New York)).\nIC50 values determined for these illustrative compounds in an E1A killing assay, using the materials and methods described above. These compounds have been described in Gerber et al. (1975), Critical Reviews in Microbiology, pp. 469-85."}, "Bcl-w": {"biological_target": "T1, Bcl-w (Homo sapiens, UniProt Q92843)", "T1 sequence (Q92843 1-193)": "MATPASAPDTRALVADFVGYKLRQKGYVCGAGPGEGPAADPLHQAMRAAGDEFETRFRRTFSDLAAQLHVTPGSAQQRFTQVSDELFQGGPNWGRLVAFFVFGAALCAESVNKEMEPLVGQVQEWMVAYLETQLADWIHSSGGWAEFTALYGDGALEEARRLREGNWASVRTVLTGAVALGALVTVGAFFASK", "assay": "Anti-apoptotic:Pro-apoptotic binding assay, Bcl-w"}, "Baby rat kidney cells": {"system": "Baby rat kidney cells", "assay": "Transformation of baby rat kidney cells transfected with E1A oncogene and Bcl-2 (colony count)", "assay_type": "cell-based", "method": "Baby rat kidney cells were transfected with RcRSV (Hartl et al. (1992) Cell Growth Differ. 3 (12): 909-18) expressing both E1A oncogene and anti-apoptotic Bcl-2 as described in (Lin et al. (1995) Mol. Cell. Biol. 15 (8): 4536-44). Transfected cells were then cultured (Lin et al. (1995) Mol. Cell. Biol. 15 (8): 4536-44) in the presence of varying concentrations of Butyl-meta-cycloheptylprodiginine for three weeks and the number of transformed cell colonies was counted."}, "[2]": {"assay": "Trypan blue cell death assay in normal human breast epithelial cells", "assay_type": "cell-based", "details": "human", "method": "as §1"}, "[3]": {"system": "Normal human breast epithelial cells", "assay": "Trypan blue cell death assay in normal human breast epithelial cells", "assay_type": "cell-based", "details": "1 μM", "method": "as §1"}, "[4]": {"system": "Human oral epithelial carcinoma cells (KB cells)", "assay": "Apoptosis reinstatement in Bcl-2 over-expressing KB cells (trypan blue)", "assay_type": "cell-based", "method": "Human oral epithelial carcinoma cells (KB cells) with and without stably expressed anti-apoptotic Bcl-2 were infected with 12S-adenovirus expressing the E1A oncogene, as described above in Example 6.1. Cell death was monitored 70 hours after infection using the trypan blue assay described above."}, "[5]": {"system": "MBA-MB231 breast cancer cells", "assay": "cells", "assay_type": "cell-based", "details": "72 h, read-out: Cytotoxicity (% Dead Cells)", "method": "as §1"}, "Bcl-2": {"biological_target": "Bcl-2 (Homo sapiens, UniProt P10415)", "sequence (P10415 whole entry)": "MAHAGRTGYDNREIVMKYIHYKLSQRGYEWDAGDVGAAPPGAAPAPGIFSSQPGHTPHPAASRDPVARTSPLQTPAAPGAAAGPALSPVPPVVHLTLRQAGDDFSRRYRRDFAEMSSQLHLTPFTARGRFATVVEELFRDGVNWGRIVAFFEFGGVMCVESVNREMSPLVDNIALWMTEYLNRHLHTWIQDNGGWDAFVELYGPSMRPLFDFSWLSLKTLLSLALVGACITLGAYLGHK", "assay": "Anti-apoptotic:Pro-apoptotic binding assay, Bcl-2"}, "[6]": {"system": "MCF-7 breast cancer cells", "assay": "Trypan blue cell death assay in MCF-7 breast cancer cells", "assay_type": "cell-based", "details": "Homo sapiens, MCF7, 72 h, read-out: Cytotoxicity (% Dead Cells)", "method": "as §1"}, "[7]": {"system": "normal baby rat kidney cells", "assay": "Susceptibility of normal baby rat kidney cells", "assay_type": "cell-based", "details": "similar conditions; data not shown", "source_text": "In the absence of anti-apoptotic Bcl-2, all baby rat kidney cells died within a few days (data not shown)."}, "B23 cells [8]": {"system": "B23 cells", "assay": "cells", "assay_type": "cell-based, Human", "method": "as §1\nNormally, intracellular expression of an oncogene in cells results in apoptotic cell death. However, if anti-apoptotic Bcl-2 is over-expressed in these cells, they are protected from apoptosis. Therefore, an anti-cancer compound's activity can be monitored by measuring cell death in B23 cells in the presence of the E1A oncogene."}, "[9]": {"details": "Homo sapiens, 72 h, read-out: Cytotoxicity (% Dead Cells)"}},
  "note": "Substitutions are numbered along the chain they refer to.",
  "data": [
    {"compound": "CCCCC1CCCCCCc2cc1c(/C=C1\\N=C(c3ccc[nH]3)C=C1OC)[nH]2", "note": "(stereo not shown) [Butyl-meta-cycloheptylprodiginine, butyl-meta-cycloheptylprodiginine]", "values": [
      {"measurement": "Effect on B23 cell death in the absence of E1A", "setting": "B23 cells [1]", "value": "no significant effect"},
      {"measurement": "IC50", "setting": "E1A cells; read-out: IC50 (μM) E1A-Bcl2 killing assay", "value": 0.05, "unit": "µM"},
      {"measurement": "IC50", "setting": "Bcl-w", "value": 100, "unit": "µM"},
      {"measurement": "Apoptosis of transformed colonies", "setting": "Baby rat kidney cells; baby rat kidney cells transformed with Bcl-2 and E1A", "value": "promoted apoptosis of the transformed colonies"},
      {"measurement": "Number of transformed cell colonies (ability of Bcl-2 to transform cells in the presence of E1A)", "setting": "Baby rat kidney cells; increasing concentrations, three weeks", "value": "significantly lowered the ability of anti-apoptotic Bcl-2 to transform cells"},
      {"measurement": "cytotoxicity at 72 h, 0.25 µM", "setting": "[2]", "value": 5, "unit": "%"},
      {"measurement": "cytotoxicity at 72 h, 1 µM", "setting": "[2]", "value": 5, "unit": "%"},
      {"measurement": "cytotoxicity at 72 h, 2 µM", "setting": "[2]", "value": 15, "unit": "%"},
      {"measurement": "Effect on normal human breast epithelial cells", "setting": "[3]", "value": "not affected"},
      {"measurement": "Apoptosis in uninfected KB cells", "setting": "[4]; uninfected cells, same concentrations", "value": "no effect on apoptosis"},
      {"measurement": "Apoptosis in E1A-infected Bcl-2 over-expressing KB cells", "setting": "[4]; various concentrations, 70 hours after infection", "value": "reinstate apoptosis"},
      {"measurement": "cytotoxicity at 0.25 µM", "setting": "[5]", "value": 64, "unit": "%"},
      {"measurement": "cytotoxicity at 1 µM", "setting": "[5]", "value": 100, "unit": "%"},
      {"measurement": "cytotoxicity at 2 µM", "setting": "[5]", "value": 100, "unit": "%"},
      {"measurement": "IC50", "setting": "Bcl-2", "value": 125, "unit": "µM"},
      {"measurement": "cytotoxicity at 0.25 µM", "setting": "[6]", "value": 70, "unit": "%"},
      {"measurement": "cytotoxicity at 1 µM", "setting": "[6]", "value": 100, "unit": "%"},
      {"measurement": "cytotoxicity at 2 µM", "setting": "[6]", "value": 100, "unit": "%"},
      {"measurement": "Susceptibility of normal baby rat kidney cells", "setting": "[7]", "value": "not susceptible"},
      {"measurement": "Concentration able to inhibit Bcl-2 in B23 cells and re-establish the killing effect of the E1A oncogene", "setting": "B23 cells [8]; B23 cells with E1A, concentrations as low as", "value": 0.25, "unit": "µM"},
      {"measurement": "cytotoxicity at 1 µM", "setting": "B23 cells [8]; [9]", "value": 85, "unit": "%"},
      {"measurement": "cytotoxicity at 2 µM", "setting": "B23 cells [8]; [9]", "value": 95, "unit": "%"},
      {"measurement": "cytotoxicity at 0.25 µM", "setting": "B23 cells [8]; Homo sapiens, B23 cells, 0.25 μM, 72 h, read-out: Cytotoxicity (% Dead Cells)", "value": 75, "unit": "%"}
    ]},
    {"compound": "Undecylprodiginine", "values": [
      {"measurement": "% inhibition at μM concentration, E1A-Bcl2 killing assay", "setting": "E1A cells; at 5 μM", "value": "25%; 5 μM"},
      {"measurement": "% inhibition at μM concentration, Anti-apoptotic:Pro-apoptotic binding assay Bcl-2", "setting": "Bcl-2; at 500 μM", "value": "40%; 500 μM"},
      {"measurement": "Cytotoxicity (% Dead Cells)", "setting": "B23 cells [8]; B23 cells, 1.0 μM, 72 h", "value": 18, "unit": "%"},
      {"measurement": "Cytotoxicity (% Dead Cells)", "setting": "B23 cells [8]; B23 cells, 5.0 μM, 72 h", "value": 25, "unit": "%"}
    ]},
    {"compound": "CCC1CCCCCCCCc2ccc([nH]2)/C=C2\\N=C(C=C2OC)c2ccc1[nH]2", "note": "(stereo not shown) [Ethylcyclononylprodiginine, ethylcyclononyl-prodiginine]", "values": [
      {"measurement": "inhibition at 5 µM", "setting": "E1A cells; read-out: % inhibition at μM concentration, E1A-Bcl2 killing assay", "value": 20, "unit": "%"},
      {"measurement": "inhibition at 510 µM", "setting": "Bcl-2; at 510 μM, read-out: % inhibition at μM concentration, Anti-apoptotic:Pro-apoptotic binding assay Bcl-2", "value": 45, "unit": "%"},
      {"measurement": "cytotoxicity at 1 µM", "setting": "B23 cells [8]; [9]", "value": 15, "unit": "%"},
      {"measurement": "cytotoxicity at 5 µM", "setting": "B23 cells [8]; [9]", "value": 20, "unit": "%"}
    ]}
  ]
}
